One experiment concerns HCC1937 cells. Put plainly: Cellular PARylation assay. It is filed as cell-based. To be noted: Homo sapiens. Put shortly: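 HCC1937 cells pretreated 30 min with compound, then stimulated with 1 mM H2O2 for 10 min. Fixed cells immunostained with anti-PAR 10H and FITC secondary, with DAPI counterstain; fluorescence read on a plate reader.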
A further experiment has as its target T1, PARP-1 (Homo sapiens, UniProt P09874).
T1 construct: purchased
Put plainly: PARP enzymatic assay (HT Universal Colorimetric PARP1 Assay Kit). The experiment is classed as biochemical. The following applies: read-out: PARP-1 enzymatic inhibition IC50. In a few lines:
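Inhibition of PARP1 was measured with the HT Universal Colorimetric PARP1 Assay Kit. A 96-well plate was coated with histone proteins overnight at 4° C, washed with PBST, and blocked for 30 min at room temperature. Test compound and 20 μl of PARP1 (1 nM) were then added and incubated. Streptavidin-HRP (1:50) and chemiluminescent HRP substrate were added, and the signal was read on an Envision microplate reader.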

Setting [1] is: HCC1937 cells, compound 30 min then 1 mM H2O2 10 min, read-out: cellular PARylation EC50.

Structures are written as SMILES. Read-outs that look alike come from different tables or passages of the source.

T1 sequence (P09874 whole entry): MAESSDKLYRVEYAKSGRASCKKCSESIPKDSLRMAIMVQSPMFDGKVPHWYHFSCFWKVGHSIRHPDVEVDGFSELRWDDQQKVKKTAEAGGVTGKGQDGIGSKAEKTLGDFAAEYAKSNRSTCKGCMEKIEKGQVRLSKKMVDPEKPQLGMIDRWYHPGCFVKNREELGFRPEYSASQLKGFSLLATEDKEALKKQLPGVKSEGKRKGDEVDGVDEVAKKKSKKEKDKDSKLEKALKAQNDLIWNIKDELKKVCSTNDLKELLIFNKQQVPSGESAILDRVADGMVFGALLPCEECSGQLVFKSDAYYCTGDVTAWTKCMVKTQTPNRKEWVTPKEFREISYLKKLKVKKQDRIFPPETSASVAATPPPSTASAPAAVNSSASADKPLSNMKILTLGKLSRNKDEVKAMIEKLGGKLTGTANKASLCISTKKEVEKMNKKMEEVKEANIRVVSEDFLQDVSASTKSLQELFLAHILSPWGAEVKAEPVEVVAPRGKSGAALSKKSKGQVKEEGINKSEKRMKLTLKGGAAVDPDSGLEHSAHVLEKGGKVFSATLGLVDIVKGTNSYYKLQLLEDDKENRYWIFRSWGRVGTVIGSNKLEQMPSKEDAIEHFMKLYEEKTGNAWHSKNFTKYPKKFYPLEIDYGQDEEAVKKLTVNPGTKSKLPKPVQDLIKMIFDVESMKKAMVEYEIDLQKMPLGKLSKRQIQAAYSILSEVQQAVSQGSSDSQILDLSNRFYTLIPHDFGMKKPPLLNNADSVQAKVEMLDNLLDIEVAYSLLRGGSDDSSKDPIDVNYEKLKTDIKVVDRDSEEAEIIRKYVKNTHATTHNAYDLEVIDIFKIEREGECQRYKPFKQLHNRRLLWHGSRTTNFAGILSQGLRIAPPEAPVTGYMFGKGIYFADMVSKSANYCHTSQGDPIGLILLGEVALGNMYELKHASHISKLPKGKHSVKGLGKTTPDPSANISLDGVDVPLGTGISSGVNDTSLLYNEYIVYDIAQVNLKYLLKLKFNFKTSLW

Usually EC50 stands for the concentration at which the effect is half-maximal. Broadly, the IC50 is the midpoint of a concentration-inhibition curve. On to `CN1CCC(C)(c2cnn3c2[nH]c2cc(F)cc(C(N)=O)c23)C1` (stereo not shown) [Example 91, 3-(1,3-dimethylpyrrolidin-3-yl)-6-fluoro-4H-benzo[4,5]imidazo[1,2-b]pyrazole-8-carboxamide], for which the EC50 with HCC1937 cells (setting [1]) lay in the range of 1 to 100 nM. Moreover, the concentration for half-maximal inhibition (IC50) on PARP-1 lay within 1 to 100 nM.
In the case of `CC(C)N1CCC(C)(c2cnn3c2[nH]c2cc(F)cc(C(N)=O)c23)C1` (stereo not shown) [Example 92, 6-fluoro-3-(1-isopropyl-3-methylpyrrolidin-3-yl)-4H-benzo[4,5]imidazo[1,2-b]pyrazole-8-carboxamide], the EC50 with HCC1937 cells (setting [1]) was in the range of 1 to 100 nM. For the same molecule, the IC50 on PARP-1 is 1 to 100 nM.
Turning to `CC1(c2cnn3c2[nH]c2cc(F)cc(C(N)=O)c23)CCN(CC2CC2)C1` (stereo not shown) [Example 93, 3-(1-(cyclopropylmethyl)-3-methylpyrrolidin-3-yl)-6-fluoro-4H-benzo[4,5]imidazo[1,2-b]pyrazole-8-carboxamide], in the experiment on HCC1937 cells (setting [1]), the EC50 lay within 1 to 100 nM. Also, the IC50 on PARP-1 is 1 to 100 nM.
On to `CC1(c2cnn3c2[nH]c2cc(F)cc(C(N)=O)c23)CCN(C2COC2)C1` (stereo not shown) [Example 94, 6-fluoro-3-(3-methyl-1-(oxetan-3-yl)pyrrolidin-3-yl)-4H-benzo[4,5]imidazo[1,2-b]pyrazole-8-carboxamide], for which the EC50 with HCC1937 cells (setting [1]) lay in the range of 101 to 1000 nM. At PARP-1, the IC50 was 1 to 100 nM.
Turning to `CC1(c2cnn3c2[nH]c2cc(F)cc(C(N)=O)c23)CCN(CCF)C1` (stereo not shown) [Example 95, 6-fluoro-3-(1-(2-fluoroethyl)-3-methylpyrrolidin-3-yl)-4H-benzo[4,5]imidazo[1,2-b]pyrazole-8-carboxamide], the EC50 in the experiment with HCC1937 cells (setting [1]) lay within 1 to 100 nM. Also, on PARP-1, the IC50 lay in the range of 1 to 100 nM.
For the molecule `CC1(c2cnn3c2[nH]c2cc(F)cc(C(N)=O)c23)CCN(CC2CC2(F)F)C1` (stereo not shown) [Example 96, 3-(1-((2,2-difluorocyclopropyl)methyl)-3-methylpyrrolidin-3-yl)-6-fluoro-4H-benzo[4,5]imidazo[1,2-b]pyrazole-8-carboxamide], the EC50 with HCC1937 cells (setting [1]) fell in the range of 1 to 100 nM. Also, the IC50 on PARP-1 fell in the range of 1 to 100 nM.
Regarding `CC1(c2cnn3c2[nH]c2cc(F)cc(C(N)=O)c23)CCN(CC(F)(F)F)C1` (stereo not shown) [Example 97, 6-fluoro-3-(3-methyl-1-(2,2,2-trifluoroethyl)pyrrolidin-3-yl)-4H-benzo[4,5]imidazo[1,2-b]pyrazole-8-carboxamide], the EC50 with HCC1937 cells (setting [1]) was 101 to 1000 nM. In addition, the IC50 on PARP-1 was 1 to 100 nM.
As to `CC1(c2cnn3c2[nH]c2cc(F)cc(C(N)=O)c23)CCN(CCS(C)(=O)=O)C1` (stereo not shown) [Example 98, 6-fluoro-3-(3-methyl-1-(2-(methylsulfonyl)ethyl)pyrrolidin-3-yl)-4H-benzo[4,5]imidazo[1,2-b]pyrazole-8-carboxamide], the EC50 with HCC1937 cells (setting [1]) lay within 101 to 1000 nM. Besides, the IC50 on PARP-1 was 1 to 100 nM.
On the same counts, the results for `CC1(c2cnn3c2[nH]c2cc(F)cc(C(N)=O)c23)CCN(CCC(F)(F)F)C1` (stereo not shown) [Example 99, 6-fluoro-3-(3-methyl-1-(3,3,3-trifluoropropyl)pyrrolidin-3-yl)-4H-benzo[4,5]imidazo[1,2-b]pyrazole-8-carboxamide] are 1 to 100 nM and 1 to 100 nM.
With `CC1(c2cnn3c2[nH]c2cc(F)cc(C(N)=O)c23)CCN(CC2(N)CC2)C1` (stereo not shown) [Example 100, 3-(1-((1-aminocyclopropyl)methyl)-3-methylpyrrolidin-3-yl)-6-fluoro-4H-benzo[4,5]imidazo[1,2-b]pyrazole-8-carboxamide], in the experiment on HCC1937 cells (setting [1]), the EC50 lay in the range of 1 to 100 nM. Also, on PARP-1, the IC50 lay in the range of 1 to 100 nM.
As to `CC1(c2cnn3c2[nH]c2cc(F)cc(C(N)=O)c23)CCN(CC2(C#N)CCC2)C1` (stereo not shown) [Example 101, 3-(1-((1-cyanocyclobutyl)methyl)-3-methylpyrrolidin-3-yl)-6-fluoro-4H-benzo[4,5]imidazo[1,2-b]pyrazole-8-carboxamide], the EC50 in the experiment with HCC1937 cells (setting [1]) fell in the range of 101 to 1000 nM. For the same molecule, the IC50 on PARP-1 lay in the range of 1 to 100 nM.
With `CC1(c2cnn3c2[nH]c2cc(F)cc(C(N)=O)c23)CCN(CC2(C#N)CC2)C1` (stereo not shown) [Example 102, 3-(1-((1-cyanocyclopropyl)methyl)-3-methylpyrrolidin-3-yl)-6-fluoro-4H-benzo[4,5]imidazo[1,2-b]pyrazole-8-carboxamide], in the experiment with HCC1937 cells (setting [1]), the EC50 is 101 to 1000 nM. The IC50 on PARP-1 fell in the range of 1 to 100 nM.
With `CC1(c2cnn3c2[nH]c2cc(F)cc(C(N)=O)c23)CCN(CCC#N)C1` (stereo not shown) [Example 103, 3-(1-(2-cyanoethyl)-3-methylpyrrolidin-3-yl)-6-fluoro-4H-benzo[4,5]imidazo[1,2-b]pyrazole-8-carboxamide], the EC50 in the experiment with HCC1937 cells (setting [1]) fell in the range of 101 to 1000 nM. The IC50 at PARP-1 was in the range of 1 to 100 nM.
For the molecule `CC1(c2cnn3c2[nH]c2cc(F)cc(C(N)=O)c23)CN(CC2CC2)C1` [Example 104, 3-(1-(cyclopropylmethyl)-3-methylazetidin-3-yl)-6-fluoro-4H-benzo[4,5]imidazo[1,2-b]pyrazole-8-carboxamide], the EC50 in the experiment on HCC1937 cells (setting [1]) fell in the range of 1 to 100 nM. The half-inhibitory concentration (IC50) at PARP-1 is 1 to 100 nM.
On to `CC(C)N1CCC(C)(c2cnn3c2[nH]c2cc(F)cc(C(N)=O)c23)CC1` [Example 105, 6-fluoro-3-(1-isopropyl-4-methylpiperidin-4-yl)-4H-benzo[4,5]imidazo[1,2-b]pyrazole-8-carboxamide], for which the EC50 in the experiment with HCC1937 cells (setting [1]) lay in the range of 1 to 100 nM. Moreover, the IC50 at PARP-1 fell in the range of 1 to 100 nM.
Consider `CC1(c2cnn3c2[nH]c2cc(F)cc(C(N)=O)c23)CCS(=O)(=O)CC1` [Example 106, 6-fluoro-3-(4-methyl-1,1-dioxidotetrahydro-2H-thiopyran-4-yl)-4H-benzo[4,5]imidazo[1,2-b]pyrazole-8-carboxamide], for which the EC50 with HCC1937 cells (setting [1]) lay in the range of 101 to 1000 nM. For the same molecule, the IC50 at PARP-1 fell in the range of 1 to 100 nM.
Turning to `CCN1CCC(CC)(c2cnn3c2[nH]c2cc(F)cc(C(N)=O)c23)CC1` [Example 107, 3-(1,4-diethylpiperidin-4-yl)-6-fluoro-4H-benzo[4,5]imidazo[1,2-b]pyrazole-8-carboxamide], the EC50 with HCC1937 cells (setting [1]) lay within 1 to 100 nM. In addition, on PARP-1, the IC50 fell in the range of 1 to 100 nM.
Consider `N#CC1(c2cnn3c2[nH]c2cc(F)cc(C(N)=O)c23)CCN(CC2CC2)CC1` [Example 108, 3-(4-cyano-1-(cyclopropylmethyl)piperidin-4-yl)-6-fluoro-4H-benzo[4,5]imidazo[1,2-b]pyrazole-8-carboxamide], for which the EC50 in the experiment on HCC1937 cells (setting [1]) was 1 to 100 nM. The IC50 on PARP-1 was 1 to 100 nM.
As for `NC(=O)c1cc(F)cc2[nH]c3c(C4(CO)CCN(CC5CC5)CC4)cnn3c12` [Example 109, 3-(1-(cyclopropylmethyl)-4-(hydroxymethyl)piperidin-4-yl)-6-fluoro-4H-benzo[4,5]imidazo[1,2-b]pyrazole-8-carboxamide], the EC50 in the experiment on HCC1937 cells (setting [1]) lay in the range of 101 to 1000 nM. The IC50 at PARP-1 is 1 to 100 nM.
For `COC(=O)C1(c2cnn3c2[nH]c2cc(F)cc(C(N)=O)c23)CCN(CC2CC2)CC1` [Example 110, methyl 4-(8-carbamoyl-6-fluoro-4H-benzo[4,5]imidazo[1,2-b]pyrazol-3-yl)-1-(cyclopropylmethyl)piperidine-4-carboxylate], the EC50 in the experiment on HCC1937 cells (HCC1937, read-out: cellular PARylation EC50) lay within 101 to 1000 nM. Moreover, the IC50 at PARP-1 lay in the range of 1 to 100 nM.
As for `Cc1nn2c([nH]c3cc(F)cc(C(N)=O)c32)c1C1(C)CCN(CC2CC2)CC1` [Example 111, 3-(1-(cyclopropylmethyl)-4-methylpiperidin-4-yl)-6-fluoro-2-methyl-4H-benzo[4,5]imidazo[1,2-b]pyrazole-8-carboxamide], in the experiment on HCC1937 cells (setting [1]), the EC50 is 1 to 100 nM. In addition, on PARP-1, the IC50 lay within 1 to 100 nM.
Consider `CCN1CCC(C)(c2c(C)nn3c2[nH]c2cc(F)cc(C(N)=O)c23)CC1` [Example 112, 3-(1-ethyl-4-methylpiperidin-4-yl)-6-fluoro-2-methyl-4H-benzo[4,5]imidazo[1,2-b]pyrazole-8-carboxamide], for which the EC50 in the experiment on HCC1937 cells (setting [1]) was 1 to 100 nM. The IC50 at PARP-1 was in the range of 1 to 100 nM.
Turning to `Cc1nn2c([nH]c3cc(F)cc(C(N)=O)c32)c1C1(C)CCN(CC(C)C)CC1` [Example 113, 6-fluoro-3-(1-isobutyl-4-methylpiperidin-4-yl)-2-methyl-4H-benzo[4,5]imidazo[1,2-b]pyrazole-8-carboxamide], in the experiment with HCC1937 cells (setting [1]), the EC50 is 1 to 100 nM. Moreover, the IC50 on PARP-1 lay within 1 to 100 nM.
As to `Cc1nn2c([nH]c3cc(F)cc(C(N)=O)c32)c1C1(C)CCN(C(C)C)CC1` [Example 114, 6-fluoro-3-(1-isopropyl-4-methylpiperidin-4-yl)-2-methyl-4H-benzo[4,5]imidazo[1,2-b]pyrazole-8-carboxamide], in the experiment with HCC1937 cells (setting [1]), the EC50 fell in the range of 1 to 100 nM. Also, on PARP-1, the IC50 was 1 to 100 nM.
As to `Cc1nn2c([nH]c3cc(F)cc(C(N)=O)c32)c1C1(C)CCN(C)CC1` [Example 115, 3-(1,4-dimethylpiperidin-4-yl)-6-fluoro-2-methyl-4H-benzo[4,5]imidazo[1,2-b]pyrazole-8-carboxamide], the EC50 with HCC1937 cells (setting [1]) is 1 to 100 nM. The IC50 on PARP-1 lay in the range of 1 to 100 nM.
Regarding `Cc1nn2c([nH]c3cc(F)cc(C(N)=O)c32)c1C1(C)CCN(CC(C)(C)O)CC1` [Example 116, 6-fluoro-3-(1-(2-hydroxy-2-methylpropyl)-4-methylpiperidin-4-yl)-2-methyl-4H-benzo[4,5]imidazo[1,2-b]pyrazole-8-carboxamide], the concentration giving a half-maximal response (EC50) in the experiment on HCC1937 cells (setting [1]) fell in the range of 1 to 100 nM. Moreover, at PARP-1, the IC50 is 1 to 100 nM.

Source of the values: patent US9856262B2, “Analogues of 4H-pyrazolo[1,5-a] benzimidazole compound as PARP inhibitors” (HUBEI BIO-PHARMACEUTICAL INDUSTRIAL TECHNOLOGICAL INSTITUTE …, priority 2014, dated 2018).
